The text below walks through data of patent publication US11084800B2 (Achillion Pharmaceuticals, Inc., priority 2017, dated 2021).

Chain of Human Factor D (P00746 26-253): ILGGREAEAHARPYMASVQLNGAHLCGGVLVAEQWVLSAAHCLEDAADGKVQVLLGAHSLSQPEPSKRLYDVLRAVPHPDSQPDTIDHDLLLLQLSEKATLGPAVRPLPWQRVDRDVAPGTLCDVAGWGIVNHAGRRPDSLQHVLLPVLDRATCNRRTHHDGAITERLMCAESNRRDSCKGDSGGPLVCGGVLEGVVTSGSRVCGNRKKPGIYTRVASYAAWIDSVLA

For one assay, the target named is Human Factor D (Homo sapiens (Human), UniProt P00746). Nature of the assay: Human Factor D Assay. In kind it is biochemical. Particulars: Factor D inhibition, assay of Example 10; read-out: IC5 (Stars). The method, boiled down:
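Thioester substrate Z-L-Lys-SBz (100 μM) with Ellman's reagent DTNB (100 μM) reports activity of 80 nM human serum-derived enzyme, kinetically at 405 nm over 30 min. Compound preincubated 5 min, room temperature, pH 7.5 Tris/1 M NaCl; IC50 by nonlinear fit of rates.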
`CC(=O)c1nn(CC(=O)N2[C@H](C(=O)Nc3nc(Br)ccc3C)C[C@@]3(C)C[C@@H]23)c2c(C(F)CF)cc(-c3cnc(C)nc3)cc12` (stereo partly drawn) [Compound 237, (1R,3S,5R)-2-(2-(3-acetyl-7-(1,2-difluoroethyl)-5-(2-methylpyrimidin-5-yl)-1H-indazol-1-yl)acetyl)-N-(6-bromo-3-methylpyridin-2-yl)-5-methyl-2-azabicyclo[3.1.0]hexane-3-carboxamide]: the IC50 was less than 1 µM.
For the compound `CC(=O)c1nn(CC(=O)N2[C@H](C(=O)Nc3nc(Br)ccc3C)C[C@@]3(C)C[C@@H]23)c2c(C(O)CF)cc(-c3cnc(C)nc3)cc12` (stereo partly drawn) [Compound 238, (1R,3S,5R)-2-(2-(3-acetyl-7-(2-fluoro-1-hydroxyethyl)-5-(2-methylpyrimidin-5-yl)-1H-indazol-1-yl)acetyl)-N-(6-bromo-3-methylpyridin-2-yl)-5-methyl-2-azabicyclo[3.1.0]hexane-3-carboxamide], the IC50 is less than 1 µM.
With `CC(=O)c1nn(CC(=O)N2[C@H]3C[C@@]3(CC#N)C[C@H]2C(=O)Nc2nc(Br)ccc2C)c2cnc(-c3cnc(C)nc3)cc12` [Compound 239, (1S,3S,5S)-2-(2-(3-acetyl-5-(2-methylpyrimidin-5-yl)-1H-pyrazolo[3,4-c]pyridin-1-yl)acetyl)-N-(6-bromo-3-methylpyridin-2-yl)-5-(cyanomethyl)-2-azabicyclo[3.1.0]hexane-3-carboxamide], the IC50 lay within 1 to 10 µM.
With `CC(=O)c1nn(CC(=O)N2[C@@H](C(=O)Nc3nc(Br)ccc3C)C[C@]3(CC#N)C[C@H]23)c2cnc(-c3cnc(C)nc3)cc12` [Compound 240, (1S,3R,5S)-2-(2-(3-acetyl-5-(2-methylpyrimidin-5-yl)-1H-pyrazolo[3,4-c]pyridin-1-yl)acetyl)-N-(6-bromo-3-methylpyridin-2-yl)-5-(cyanomethyl)-2-azabicyclo[3.1.0]hexane-3-carboxamide], the IC50 is 1 to 10 µM.
The same measure, in the same setting: in the case of `CC(=O)c1nn(CC(=O)N2C[C@H]3C[C@H]3[C@H]2C(=O)Nc2nc(Br)ccc2C)c2c(C)nc(-c3cnc(C)nc3)cc12` [Compound 241, (1R,2S,5S)-3-(2-(3-acetyl-7-methyl-5-(2-methylpyrimidin-5-yl)-1H-pyrazolo[3,4-c]pyridin-1-yl)acetyl)-N-(6-bromo-3-methylpyridin-2-yl)-3-azabicyclo[3.1.0]hexane-2-carboxamide] it was less than 1 µM; in that of `CC(=O)c1nn(CC(=O)N2[C@H](C(=O)Nc3nc(Br)ccc3C)C[C@@]3(CN4C[C@H]5CCC[C@H]5C4)C[C@@H]23)c2cnc(-c3cnc(C)nc3)cc12` [Compound 245, (1R,3S,5R)-2-(2-(3-acetyl-5-(2-methylpyrimidin-5-yl)-1H-pyrazolo[3,4-c]pyridin-1-yl)acetyl)-N-(6-bromo-3-methylpyridin-2-yl)-5-(((3aR,6a5)-hexahydrocyclopenta [c]pyrrol-2(1H)-yl)methyl)-2-azabicyclo[3.1.0]hexane-3-carboxamide], less than 1 µM; in that of `CC(=O)c1nn(CC(=O)N2[C@H](C(=O)Nc3nc(Br)ccc3C)C[C@@]3(CN4CC5(CCCC5)C4)C[C@@H]23)c2cnc(-c3cnc(C)nc3)cc12` [Compound 246, (1R,3S,5R)-5-(2-azaspiro[3.4]octan-2-ylmethyl)-2-(2-(3-acetyl-5-(2-methylpyrimidin-5-yl)-1H-pyrazolo[3,4-c]pyridin-1-yl)acetyl)-N-(6-bromo-3-methylpyridin-2-yl)-2-azabicyclo[3.1.0]hexane-3-carboxamide], less than 1 µM.
`CC(=O)c1nn(CC(=O)N2[C@H](C(=O)Nc3nc(Br)c(F)cc3C)C[C@@]3(CC#N)C[C@@H]23)c2cnc(-c3cnc(C)nc3)cc12` [Compound 249, (1R,3S,5R)-2-(2-(3-acetyl-5-(2-methylpyrimidin-5-yl)-1H-pyrazolo[3,4-c]pyridin-1-yl)acetyl)-N-(6-bromo-5-fluoro-3-methylpyridin-2-yl)-5-(cyanomethyl)-2-azabicyclo[3.1.0]hexane-3-carboxamide]: the IC50 was less than 1 µM.
Regarding `CC(=O)c1nn(CC(=O)N2[C@H](C(=O)Nc3nc(Br)c(F)cc3C)C[C@@]3(CN4CC(F)(F)C4)C[C@@H]23)c2cnc(-c3cnc(C)nc3)cc12` [Compound 250, (1R,3S,5R)-2-(2-(3-acetyl-5-(2-methylpyrimidin-5-yl)-1H-pyrazolo[3,4-c]pyridin-1-yl)acetyl)-N-(6-bromo-5-fluoro-3-methylpyridin-2-yl)-5-((3,3-difluoroazetidin-1-yl)methyl)-2-azabicyclo[3.1.0]hexane-3-carboxomide], the IC50 is less than 1 µM.
Turning to `CC(=O)c1nn(CC(=O)N2[C@H](C(=O)Nc3nc(Br)c(F)cc3C)C[C@@]3(CF)C[C@@H]23)c2cnc(-c3cnc(C)nc3)cc12` [Compound 251], the IC50 is less than 1 µM.
On to `CC(=O)c1nn(CC(=O)N2[C@H](C(=O)Nc3nc(Br)c(F)cc3C)C[C@@]3(CN4CC5(CCCC5)C4)C[C@@H]23)c2cnc(-c3cnc(C)nc3)cc12` [Compound 252, (1R,3S,5R)-5-(2-azaspirp[3.4]octan-2-ylmethyl)-2-(2-(3-acetyl-5-(2-methylpyrimidin-5-yl)-1H-pyrazole[3,4-c]pyridin-1-yl)acetyl)-N-(6-bromo-5-fluoro-3-methylpyridin-2-yl)-2-azabicyclo[3.1.0]hexane-3-carboxomide], for which the IC50 was less than 1 µM.

The same assay, now with this note: Table 8; Factor D 80 nM, substrate Z-L-Lys-SBz; read-out: IC50.
As for `CC(=O)c1nn(CC(=O)N2[C@H](C(=O)Nc3nc(Br)ccc3C)C[C@@]3(C)C[C@@H]23)c2c(-c3nn[nH]n3)cc(-c3cnc(C)nc3)cc12` [Compound 236, (1R,3S,5R)-2-(2-(3-acetyl-5-(2-methylpyrimidin-5-yl)-7-(2H-tetrazol-5-yl)-1H-indazol-1-yl)acetyl)-N-(6-bromo-3-methylpyridin-2-yl)-5-methyl-2-azabicyclo[3.1.0]hexane-3-carboxamide], the IC50 was less than 1 µM.
Consider `CC(=O)c1nn(CC(=O)N2[C@H](C(=O)Nc3nc(Br)ccc3C)C[C@@]3(C)C[C@@H]23)c2ccc(-c3cnc(CNC(=O)COCCOCCNC(=O)COCCOCCNC(=O)CC[C@H](NC(=O)CCCCCCCCCCCCCCCCC(=O)O)C(=O)O)nc3)cc12` [Compound 242], for which the IC50 was less than 1 µM.
Still for that read-out and setting: in the case of `CC(=O)c1nn(CC(=O)N2C[C@@]3(CC(c4ccccc4)=NO3)C[C@H]2C(=O)Nc2nc(Br)ccc2C)c2c(C)cc(-c3cnc(C)nc3)cc12` [Compound 243, (5S,8S)-7-(2-(3-acetyl-7-methyl-5-(2-methylpyrimidin-5-yl)-1H-indazol-1-yl)acetyl)-N-(6-bromo-3-methylpyridin-2-yl)-3-phenyl-1-oxa-2,7-diazaspiro[4.4]non-2-ene-8-carboxamide] it was 1 to 10 µM.
With `CC(=O)c1nn(CC(=O)N2CC3(CC(C4CCCCC4)=NO3)C[C@H]2C(=O)Nc2nc(Br)ccc2C)c2c(C)cc(-c3cnc(C)nc3)cc12` (stereo partly drawn) [Compound 244, (8S)-7-(2-(3-acetyl-7-methyl-5-(2-methylpyrimidin-5-yl)-1H-indazol-1-yl)acetyl)-N-(6-bromo-3-methylpyridin-2-yl)-3-cyclohexyl-1-oxa-2,7-diazaspiro[4.4]non-2-ene-8-carboxamide], the IC50 is less than 1 µM.
